Patent US20010055590A1, “Method for enhancing myoblast migration and invasion in the context of gene therapy” (priority 1999, published 2001)

How the values were obtained:
[1] = tested on: mouse myoblasts; test: In vitro mouse myoblast migration assay (gelatin-coated membrane); assay type: cell-based; details: 12 hours; for effect on bFGF-stimulated mouse myoblast migration: 0.05 units/ml plasmin or 50 mM NAC in top chamber; for effect on migration stimulated by bFGF and fibronectin in combination: 0.05 units/ml plasmin or 50 mM NAC; for stimulation of mouse myoblast migration over the DMEM control: 25 ng/ml bFGF, 50 μg/ml fibronectin, 10 ng/ml HGF, 2 ng/ml TGF-β1; for effect on mouse myoblast migration: stimulant in bottom chamber
Experimental: Mouse myoblasts were previously isolated from hind limb muscles of 4-6 week old severe combined immunodeficient (SCID) mice and clonally purified from contaminating fibroblasts (Yao et al. “Primary myoblast-mediated gene: transfer: persistent expression of human factor IX in mice” Gene Therapy 1:99-107, 1994). Myoblasts (approximately 1×10^6 cells) were plated on 6 cm tissue culture plates coated with 0.5% gelatin (Sigma, St. Louis, Mo.) and grown in growth medium consisting of Dulbecco's Modified Eagle Medium (DMEM) (Gibco BRL, Gaithersburg Md.) supplemented with 20% fetal bovine serum (FBS; Gibco) and 0.5% chick embryo extract (CEE; Gibco). All animal studies were carried out following the institutional guidelines for ethical animal use. Human myoblasts were isolated using trypsin digestion from abdominal wall or chest wall muscle biopsies, and surgery. Written consent was obtained from all patients prior to biopsy isolation as approved by the University Hospital's Institutional Regulation Board on the use of human subjects. Cells were preplated on uncoated plates for 1 hour to separate muscle fibroblasts. […] All experiments were done with myoblasts of passage 7 or lower. Myoblast migration and invasion were examined using a commercially available in vitro cell migration and invasion assay kit (Biocoat, Becton Dickinson, Franklin Lakes, N.J.) as described by Albini et al. (A rapid in vitro assay for quantitating the invasive potential of tumor cells Cancer Res 47:3239-3245, 1987). Myoblasts were grown to approximately 70% confluence, rinsed three times in serum-free DMEM, followed by incubation for 3 hours in 0.2% bovine serum albumin (BSA) in DMEM to eliminate the effects of serum. Cells were then trypsinized and collected by centrifugation. Cells were resuspended in serum-free DMEM at a density of 1×10^5 cells/ml, and 0.5 ml aliquots of cell suspension were added to the top chamber. […] Fibronectin subfragments of 45 KDa (Sigma), 120 kDa (Gibco), 63 kDa (Retronectin, Takara) and 70 KDa (Sigma) were used alone or in combination. […] For migration studies, the upper chamber membrane was coated with 0.1% gelatin and cells were allowed to migrate for 8-12 hours, while for invasion studies, the upper membrane was coated with 5 μl of Matrigel® diluted to 5 mg/ml in sterile phosphate buffered saline (PBS) and cells were allowed to invade for 24 hours. The top side of the insert membrane was scrubbed free of cells using a cotton swab and the bottom side was stained using the Leukostat-I system (Fisher Diagnostics, Pittsburgh, Pa.). The number of cells per field was counted in 10 randomly selected fields and averaged for each condition. To evaluate the effects of inactivation or activation of MMPs, aliquots (0.05 units in 50 μl PBS) of purified human plasmin (Sigma) or 50 mM N-acetyl cysteine (NAC; Sigma) were added with the cells to the top chamber of the migration assay and growth factor was added to the bottom. […] Myoblasts (5×10^4 cells/well) were stimulated with various growth factors and fibronectin, and their ability to migrate or invade through a Matrigel® barrier (panel a, mouse myoblast migration at 12 hours; panel b, mouse myoblast invasion at 24 hours). […] Bars represent mean ±SEM from a minimum of 3 separate experiments. […] Further studies were done to elucidate the role of MMPs in cytokine-mediated mouse myoblast migration.

[2] = tested on: mouse myoblasts; test: In vitro mouse myoblast invasion assay across Matrigel barrier; assay type: cell-based; details: 24 hours; for effect on bFGF-stimulated mouse myoblast invasion: 0.05 units/ml plasmin or 50 mM NAC; for increase of mouse myoblast invasion across Matrigel barrier over the control: 25 ng/ml bFGF, 50 μg/ml fibronectin
Experimental: Mouse myoblasts were previously isolated from hind limb muscles of 4-6 week old severe combined immunodeficient (SCID) mice and clonally purified from contaminating fibroblasts (Yao et al. “Primary myoblast-mediated gene: transfer: persistent expression of human factor IX in mice” Gene Therapy 1:99-107, 1994). Myoblasts (approximately 1×10^6 cells) were plated on 6 cm tissue culture plates coated with 0.5% gelatin (Sigma, St. Louis, Mo.) and grown in growth medium consisting of Dulbecco's Modified Eagle Medium (DMEM) (Gibco BRL, Gaithersburg Md.) supplemented with 20% fetal bovine serum (FBS; Gibco) and 0.5% chick embryo extract (CEE; Gibco). All animal studies were carried out following the institutional guidelines for ethical animal use. Human myoblasts were isolated using trypsin digestion from abdominal wall or chest wall muscle biopsies, and surgery. Written consent was obtained from all patients prior to biopsy isolation as approved by the University Hospital's Institutional Regulation Board on the use of human subjects. Cells were preplated on uncoated plates for 1 hour to separate muscle fibroblasts. […] All experiments were done with myoblasts of passage 7 or lower. Myoblast migration and invasion were examined using a commercially available in vitro cell migration and invasion assay kit (Biocoat, Becton Dickinson, Franklin Lakes, N.J.) as described by Albini et al. (A rapid in vitro assay for quantitating the invasive potential of tumor cells Cancer Res 47:3239-3245, 1987). Myoblasts were grown to approximately 70% confluence, rinsed three times in serum-free DMEM, followed by incubation for 3 hours in 0.2% bovine serum albumin (BSA) in DMEM to eliminate the effects of serum. Cells were then trypsinized and collected by centrifugation. Cells were resuspended in serum-free DMEM at a density of 1×10^5 cells/ml, and 0.5 ml aliquots of cell suspension were added to the top chamber. […] Fibronectin subfragments of 45 KDa (Sigma), 120 kDa (Gibco), 63 kDa (Retronectin, Takara) and 70 KDa (Sigma) were used alone or in combination. […] For migration studies, the upper chamber membrane was coated with 0.1% gelatin and cells were allowed to migrate for 8-12 hours, while for invasion studies, the upper membrane was coated with 5 μl of Matrigel® diluted to 5 mg/ml in sterile phosphate buffered saline (PBS) and cells were allowed to invade for 24 hours. The top side of the insert membrane was scrubbed free of cells using a cotton swab and the bottom side was stained using the Leukostat-I system (Fisher Diagnostics, Pittsburgh, Pa.). The number of cells per field was counted in 10 randomly selected fields and averaged for each condition. To evaluate the effects of inactivation or activation of MMPs, aliquots (0.05 units in 50 μl PBS) of purified human plasmin (Sigma) or 50 mM N-acetyl cysteine (NAC; Sigma) were added with the cells to the top chamber of the migration assay and growth factor was added to the bottom. […] Myoblasts (5×10^4 cells/well) were stimulated with various growth factors and fibronectin, and their ability to migrate or invade through a Matrigel® barrier (panel a, mouse myoblast migration at 12 hours; panel b, mouse myoblast invasion at 24 hours). […] Bars represent mean ±SEM from a minimum of 3 separate experiments.

CC(=O)N[C@@H](CS)C(=O)O [NAC, N-acetyl cysteine, reference compound]
effect on migration stimulated by combination of bFGF and plasmin ([1]; 50 mM NAC): dramatic reduction
effect on bFGF-stimulated mouse myoblast migration [1]: efficiently reduced the effect of bFGF on mouse myoblast migration to a level similar to the BSA control
effect on migration stimulated by bFGF and fibronectin in combination [1]: attenuated the effects
effect on bFGF-stimulated mouse myoblast invasion [2]: drastically reduced such stimulatory effects to the control levels

bovine basic fibroblast growth factor [bFGF]
stimulation of mouse myoblast migration over the DMEM control [1]: 12 fold
effect on mouse myoblast migration [1]: stimulated migration of mouse myoblasts to various degrees
increase of mouse myoblast invasion across Matrigel barrier over the control [2]: approximately 7 fold

human serum fibronectin
stimulation of mouse myoblast migration over the DMEM control [1]: 14 fold
effect on mouse myoblast migration [1]: stimulated migration of mouse myoblasts to various degrees
increase of mouse myoblast invasion across Matrigel barrier over the control [2]: 4 fold

B1: purified human plasmin (protein, UniProt P00747 20-580; P00747 581-810, looked up)
Plasmin heavy chain A: EPLDDYVNTQGASLFSVTKKQLGAGSIEECAAKCEEDEEFTCRAFQYHSKEQQCVIMAENRKSSIIIRMRDVVLFEKKVYLSECKTGNGKNYRGTMSKTKNGITCQKWSSTSPHRPRFSPATHPSEGLEENYCRNPDNDPQGPWCYTTDPEKRYDYCDILECEEECMHCSGENYDGKISKTMSGLECQAWDSQSPHAHGYIPSKFPNKNLKKNYCRNPDRELRPWCFTTDPNKRWELCDIPRCTTPPPSSGPTYQCLKGTGENYRGNVAVTVSGHTCQHWSAQTPHTHNRTPENFPCKNLDENYCRNPDGKRAPWCHTTNSQVRWEYCKIPSCDSSPVSTEQLAPTAPPELTPVVQDCYHGDGQSYRGTSSTTTTGKKCQSWSSMTPHRHQKTPENYPNAGLTMNYCRNPDADKGPWCFTTDPSVRWEYCNLKKCSGTEASVVAPPPVVLLPDVETPSEEDCMFGNGKGYRGKRATTVTGTPCQDWAAQEPHRHSIFTPETNPRAGLEKNYCRNPDGDVGGPWCYTTNPRKLYDYCDVPQCAAPSFDCGKPQVEPKKCPGR
Plasmin light chain B: VVGGCVAHPHSWPWQVSLRTRFGMHFCGGTLISPEWVLTAAHCLEKSPRPSSYKVILGAHQEVNLEPHVQEIEVSRLFLEPTRKDIALLKLSSPAVITDKVIPACLPSPNYVVADRTECFITGWGETQGTFGAGLLKEAQLPVIENKVCNRYEFLNGRVQSTELCAGHLAGGTDSCQGDSGGPLVCFEKDKYILQGVTSWGLGCARPNKPGVYVRVSRFVTWIEGVMRNN
modifications: Plasmin
effect on bFGF-stimulated mouse myoblast migration [1]: increased the migrational response to bFGF by nearly twofold
effect on migration stimulated by bFGF and fibronectin in combination [1]: attenuated the effect
effect alone on mouse myoblast migration compared to the control ([1]; 0.05 units/ml plasmin, no growth factor): slightly negative effect
effect on bFGF-stimulated mouse myoblast invasion [2]: further increased the effects of bFGF
effect on invasion stimulated by combination of bFGF and fibronectin ([2]; plasmin): lowered the greatly enhanced effects
